# Measurements published in patent publication US6407097B1, “Methoximinomethyloxathiazines” (Bayer Aktiengesellschaft, priority 1998, dated 2002).
# System: not listed separately
# Experiment: logP by HPLC (EEC directive 79/831 Annex V. A8, gradient method)
# Assay type: physicochemical
# Details: starting materials/intermediates, read-out: HPLC: log P
row,SMILES,chromatographic logP
1,"CON=C1C(=NOCCSC(C)=O)Oc2ccccc21 (single isomer, unassigned) [VI-1 Isomer A, S-[2-(3-methoxyimino-3H-benzofuran-2-ylideneaminooxy)-ethyl]thioacetate]",3.01
2,"CON=C1C(=NOCCBr)Oc2ccccc21 (single isomer, unassigned) [VII-1 Isomer B, benzofuran-2,3-dione 2-[O-(2-bromoethyl)-oxime] 3-(O-methyloxime)]",3.23
3,"CON=C1C(=NOCCSC(C)=O)Oc2ccccc21 (single isomer, unassigned) [VI-1 Isomer B, S-[2-(3-methoxyimino-3H-benzofuran-2-ylideneaminooxy)-ethyl]thioacetate]",3.18
4,"CON=C1C(=NOCCBr)Oc2ccccc21 (single isomer, unassigned) [VII-1 Isomer A, benzofuran-2,3-dione 2-[O-(2-bromoethyl)-oxime] 3-(O-methyloxime)]",3.08
5,"CON=C(C1=NOCCS1)c1ccccc1Oc1ncnc(F)c1F [IV-1, [2-(5,6-difluoro-pyrimidine-4-yloxy)-phenyl]-(5,6-dihydro-[1,4,2]oxathiazin-3-yl)-methanone O-methyloxime]",2.8
6,"CON=C(C1=NOCCS1)c1ccccc1O [II-1, (5,6-dihydro-[1,4,2]oxathiazin-3-yl)-(2-hydroxyphenyl)-methanone O-methyloxime]",1.75

# System: Sphaerotheca fuliginea
# Experiment: Sphaerotheca test (cucumber)/protective
# Assay type: in vivo
# Details: protective, application rate 100 g/ha, evaluation 10 days after inoculation
# Experimental: Sphaerotheca test (cucumber)/protective Solvent: 47 parts by weight of acetone Emulsifier: 3 parts by weight of alkylaryl polyglycol ether To produce a suitable preparation of active compound, 1 part by weight of active compound is mixed with the stated amounts of solvent and emulsifier, and the concentrate is diluted with water to the desired concentration. To test for protective activity, young plants are sprayed with the preparation of active compound at the stated application rate. After the spray coating has dried on, the plants are inoculated with an aqueous spore suspension of Sphaerotheca fuliginea. The plants are then placed in a greenhouse at approximately 23° C. and a relative atmospheric humidity of approximately 70%. Evaluation is carried out 10 days after the inoculation. 0% means an efficacy which corresponds to that of the control, whereas an efficacy of 100% means that no infection is observed.
row,SMILES,efficacy [%]
1,"CON=C(C1=NOCCS1)c1ccccc1Oc1ncnc(Oc2ccccc2)c1F [Example 1, (5,6-dihydro-[1,4,2]-oxathiazin-3-yl)-2-[(5-fluoro-6-phenoxy-pyrimidine-4-yloxy)-phenyl]-methanone O-methyloxime]",≥ 90
